These results are taken from PMC9380671, “Development of spiro-3-indolin-2-one containing compounds of antiproliferative and anti-SARS-CoV-2 properties” (Scientific Reports, 2022).

Where two headings read alike, the source gives them in different places. Bounds are passed on as bounds.

Series [1] has as its system MCF7 (breast cancer cell line). The series is described as follows: Annexin V-FITC apoptosis/necrosis studies. To be noted: MCF7, compound at its MTT IC50. In kind it is cell-based, human. The source says:
It is also notable that both the tested compounds increase the apoptosis of the tested cancer cells. Moreover, the total amount of apoptosis for the tested cell line is higher for compound 6m than that for 6l (total number of apoptosis = 38.41, 42.55 for compounds 6l and 6m, respectively). […] On the other hand, necrosis observed for compound 6m is relatively higher than that of compound 6l (necrosis = 3.01, 3.96 for compounds 6l and 6m, respectively). […] These observations agree with the antiproliferation properties observed through MTT assay (Table 3, Fig. 8).
(§1) Cell cycle studies for the most promising agents synthesized (6l and 6m) against MCF7 (breast) cancer call were conducted by the standard technique. The Cells were suspended in DMEM medium in addition to 1% antibiotic–antimycotic mixture (10000 μg ml^-1 potassium penicillin, 10000 μg ml^-1 streptomycin sulfate and 25 μg ml^-1 amphotericin B), 10% fetal bovine serum and 1% L-glutamine at 37 °C, under 5% CO2 and 95% humidity. Cells were seeded at concentration of 30000 cells per well in fresh complete growth medium in 96-well tissue culture microtiter plates for 24 h. Media was aspirated, fresh complete medium was added and cells were incubated with the IC50 concentration of the tested compounds which determined previously in the MTT antiproliferation testing assay. The ab139418-Propidium Iodide Flow Cytometry kit for cycle analysis (reader: BD FACS Calibur)^8 was used for cell cycle analysis. The Annexin V-FITC Apoptosis Detection Kit (Catalog#K101-25) was utilized for apoptosis studies.^9 All the studies were conducted according to the manufacturer’s instruction.

Series [2] concerns MCF7 (breast cancer cell line). The series is described as follows: PI-flow cytometry cell cycle studies. In kind it is cell-based, human. The conditions noted are these: MCF7, PI-FC, compound at its MTT IC50. The protocol:
Flow cytometry (FC) is a reliable technique for evaluation of cancer cell progression[72]–[74]. Illumination of the cells by lasers can identify the stained propidium iodide (PI) DNA cell content in stoichiometric population value. This is a commonly accessible methodology for studying cancer cell antiproliferation and cell cycle phase suppression.
as §1
Background: A flow cytometer gives signals particle by particle.

The subject of series [3] is SARS-CoV-2 (hCoV-19/Egypt/NRC-03/2020). The series is described as follows: Vero-E6 cell viral infection model, anti-SARS-CoV-2 IC50 (CPE, crystal violet). To be noted: for IC50: Severe acute respiratory syndrome coronavirus 2, Vero C1008; for SI = CC50/IC50: Vero-E6, SARS-CoV-2. In kind it is cell-based.
The target in the next series is BChE (Homo sapiens, UniProt P06276). The series is described as follows: BChE inhibition (DTNB, butyrylthiocholine iodide).
For a further series, the target named is AChE (Homo sapiens, UniProt P22303). The series is described as follows: AChE inhibition (DTNB, acetylthiocholine). In kind it is biochemical. The conditions noted are these: for IC50: read-out: AChE (IC50, μM) ± SD. On the procedure: All compounds were dissolved in MeOH.
Series [4] relates to MCF7 (breast) cancer cell line. The series is described as follows: MTT antiproliferation, MCF7. In kind it is cell-based, human. To be noted: for IC50: Homo sapiens, MCF7, 72 h, read-out: IC50 (µM) ± SEM MCF7; for SI (selectivity index) MCF7: IC50 of RPE1/IC50 of cancer cell line. A digest of the protocol:
(§2)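 Cells seeded 30000/well for 24 h, then treated for 72 h with triplicate wells per dose; 0.5% DMSO as negative control. MTT (2.5 mg ml^-1) added for 4 h at 37 °C, crystals dissolved in 10% SDS overnight. Surviving fraction = O.D. treated / O.D. control.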

The nature of series [5]: MTT cytotoxicity assay (CC50). In kind it is cell-based. The conditions noted are these: African green monkey, VERO-E6 cells. A digest of the protocol:
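VERO-E6 cells seeded at 3 x 10^5 cell/ml, grown 24 h at 37 °C, then exposed to compounds in triplicate for 24 h. Viability by MTT (4 h, 37 °C), formazan in acidified isopropanol read at 570 nm; CC50 by nonlinear regression versus untreated cells.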
In general terms: Tetrazolium assays rely on reduction of a dye to a coloured formazan, in cell work by metabolically active cells.

For a further series, the target named is T1, EGFR (Homo sapiens, UniProt P00533).
T1 construct: Western blot technique was considered for EGFR and VEGFR-2 properties determination; endogenous in cells; host or cells: MCF7 (breast cancer cell line)
In kind it is cell-based. The conditions noted are these: western blot, MCF7, compound at its MTT IC50; for EGFR RQ (relative quantification): control RQ 3.4461. A digest of the protocol: (§3)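 Western blot of MCF7 breast cancer cells, each agent tested at its own IC50 from the MTT assay on that line, following the manufacturer's instructions.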
On the technique in general: A western blot detects proteins with antibodies after separation by electrophoresis.

For another series, the target named is T2, VEGFR-2 (Homo sapiens, UniProt P35968).
T2 construct: Western blot technique was considered for EGFR and VEGFR-2 properties determination; endogenous in cells; host or cells: MCF7 (breast cancer cell line)
In kind it is cell-based. The conditions noted are these: western blot, MCF7, compound at its MTT IC50; for VEGFR-2 RQ (relative quantification): control RQ 3.2634. In outline:
as §3

Series [6] concerns A431 (skin squamous) cancer cell line. The series is described as follows: MTT antiproliferation, A431. In kind it is cell-based, human. The conditions noted are these: for IC50: Homo sapiens; for SI (selectivity index) A431: IC50 of RPE1/IC50 of cancer cell line. In outline: as §2
The mark [7] stands for this setting: Vero-E6, 72 h, reduction of virus-induced CPE, read-out: IC50 (µM) SARS-CoV-2.
[8] abbreviates: log of observed IC50 in μM, read-out: Observed log(IC50, μM) (SARS-CoV-2) (converted).
Where [9] appears, read: A-431, 72 h, read-out: IC50 (µM) ± SEM A431.
[10] abbreviates: A-431, read-out: Observed log(IC50, μM) (A431) (converted).

T2 sequence (P35968 20-1356): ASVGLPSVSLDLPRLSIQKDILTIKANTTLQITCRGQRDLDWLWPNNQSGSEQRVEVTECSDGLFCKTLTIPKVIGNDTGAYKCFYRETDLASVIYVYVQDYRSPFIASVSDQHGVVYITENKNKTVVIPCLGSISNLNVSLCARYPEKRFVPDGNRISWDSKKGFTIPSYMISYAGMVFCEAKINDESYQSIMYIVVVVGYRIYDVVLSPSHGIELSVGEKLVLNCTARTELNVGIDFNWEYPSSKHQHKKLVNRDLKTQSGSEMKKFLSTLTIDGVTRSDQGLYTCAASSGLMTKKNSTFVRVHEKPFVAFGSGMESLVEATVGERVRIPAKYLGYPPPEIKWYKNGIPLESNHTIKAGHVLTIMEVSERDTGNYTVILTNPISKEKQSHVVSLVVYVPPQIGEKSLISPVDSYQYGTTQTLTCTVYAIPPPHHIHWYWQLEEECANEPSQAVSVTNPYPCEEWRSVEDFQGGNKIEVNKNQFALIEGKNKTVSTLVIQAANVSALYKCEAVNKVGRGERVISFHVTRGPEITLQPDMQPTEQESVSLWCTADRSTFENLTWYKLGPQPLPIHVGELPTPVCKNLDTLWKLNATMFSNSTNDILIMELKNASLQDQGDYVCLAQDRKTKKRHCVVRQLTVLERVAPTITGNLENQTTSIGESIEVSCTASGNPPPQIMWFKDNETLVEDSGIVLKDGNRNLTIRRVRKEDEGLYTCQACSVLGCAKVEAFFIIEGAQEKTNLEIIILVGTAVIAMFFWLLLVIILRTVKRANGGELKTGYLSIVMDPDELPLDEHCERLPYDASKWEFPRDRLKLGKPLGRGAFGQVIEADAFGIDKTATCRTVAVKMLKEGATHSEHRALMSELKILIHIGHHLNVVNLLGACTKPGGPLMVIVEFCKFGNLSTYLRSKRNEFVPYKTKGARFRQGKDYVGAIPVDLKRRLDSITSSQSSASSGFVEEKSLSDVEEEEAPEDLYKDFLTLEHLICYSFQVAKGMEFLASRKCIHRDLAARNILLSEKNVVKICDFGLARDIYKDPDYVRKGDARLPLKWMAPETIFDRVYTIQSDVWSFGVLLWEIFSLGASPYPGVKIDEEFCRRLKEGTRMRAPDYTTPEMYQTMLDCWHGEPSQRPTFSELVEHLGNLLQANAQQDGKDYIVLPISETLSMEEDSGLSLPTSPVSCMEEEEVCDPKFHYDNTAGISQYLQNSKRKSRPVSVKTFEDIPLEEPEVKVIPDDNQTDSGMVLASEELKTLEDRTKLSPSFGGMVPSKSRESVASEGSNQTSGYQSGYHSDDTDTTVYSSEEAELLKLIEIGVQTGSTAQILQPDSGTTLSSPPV
T1 sequence (P00533 25-1210): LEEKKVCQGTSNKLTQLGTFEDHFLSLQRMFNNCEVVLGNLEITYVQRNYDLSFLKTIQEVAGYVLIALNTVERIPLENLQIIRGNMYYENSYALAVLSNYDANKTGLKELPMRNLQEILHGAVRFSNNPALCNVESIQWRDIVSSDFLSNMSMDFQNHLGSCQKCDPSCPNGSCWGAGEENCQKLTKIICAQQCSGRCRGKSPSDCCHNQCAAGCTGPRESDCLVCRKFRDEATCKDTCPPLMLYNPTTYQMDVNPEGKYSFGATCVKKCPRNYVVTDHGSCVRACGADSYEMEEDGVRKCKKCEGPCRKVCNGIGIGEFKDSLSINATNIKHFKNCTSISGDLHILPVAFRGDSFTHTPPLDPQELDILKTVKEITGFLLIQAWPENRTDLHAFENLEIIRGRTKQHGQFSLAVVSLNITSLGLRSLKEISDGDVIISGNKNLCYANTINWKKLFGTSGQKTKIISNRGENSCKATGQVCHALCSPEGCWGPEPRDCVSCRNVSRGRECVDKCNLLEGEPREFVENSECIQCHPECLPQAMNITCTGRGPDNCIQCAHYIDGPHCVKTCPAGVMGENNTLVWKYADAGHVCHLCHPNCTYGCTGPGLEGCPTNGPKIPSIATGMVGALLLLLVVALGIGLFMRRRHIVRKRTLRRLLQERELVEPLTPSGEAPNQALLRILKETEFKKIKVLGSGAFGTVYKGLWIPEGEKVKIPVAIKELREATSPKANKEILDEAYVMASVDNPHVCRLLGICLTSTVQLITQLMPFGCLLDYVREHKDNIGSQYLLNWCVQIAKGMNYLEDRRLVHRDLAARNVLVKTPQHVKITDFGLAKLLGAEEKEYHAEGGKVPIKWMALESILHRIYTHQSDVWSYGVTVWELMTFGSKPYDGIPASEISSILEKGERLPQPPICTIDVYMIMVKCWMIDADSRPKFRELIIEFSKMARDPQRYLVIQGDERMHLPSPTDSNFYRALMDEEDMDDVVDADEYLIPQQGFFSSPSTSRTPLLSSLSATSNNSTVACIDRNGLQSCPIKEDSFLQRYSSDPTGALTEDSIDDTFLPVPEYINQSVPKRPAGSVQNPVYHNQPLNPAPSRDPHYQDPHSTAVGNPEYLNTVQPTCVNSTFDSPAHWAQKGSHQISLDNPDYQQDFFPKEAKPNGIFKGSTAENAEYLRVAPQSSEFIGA
AChE, sequence (P22303 32-614): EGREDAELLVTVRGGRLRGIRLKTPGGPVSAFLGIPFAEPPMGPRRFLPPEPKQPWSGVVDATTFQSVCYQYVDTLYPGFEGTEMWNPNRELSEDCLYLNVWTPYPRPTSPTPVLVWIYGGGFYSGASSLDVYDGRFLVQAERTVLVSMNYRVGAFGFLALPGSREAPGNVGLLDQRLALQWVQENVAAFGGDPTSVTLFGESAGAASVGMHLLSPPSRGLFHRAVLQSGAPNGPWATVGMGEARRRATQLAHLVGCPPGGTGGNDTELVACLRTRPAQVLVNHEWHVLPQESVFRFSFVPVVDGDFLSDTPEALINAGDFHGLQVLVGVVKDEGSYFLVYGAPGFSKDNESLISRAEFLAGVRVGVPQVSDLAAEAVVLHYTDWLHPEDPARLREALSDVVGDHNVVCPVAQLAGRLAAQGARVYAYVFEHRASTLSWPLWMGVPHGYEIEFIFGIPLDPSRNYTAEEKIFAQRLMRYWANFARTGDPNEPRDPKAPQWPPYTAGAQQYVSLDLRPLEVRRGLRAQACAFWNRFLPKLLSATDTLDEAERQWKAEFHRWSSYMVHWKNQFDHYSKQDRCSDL
BChE, sequence (P06276 29-602, species assumed): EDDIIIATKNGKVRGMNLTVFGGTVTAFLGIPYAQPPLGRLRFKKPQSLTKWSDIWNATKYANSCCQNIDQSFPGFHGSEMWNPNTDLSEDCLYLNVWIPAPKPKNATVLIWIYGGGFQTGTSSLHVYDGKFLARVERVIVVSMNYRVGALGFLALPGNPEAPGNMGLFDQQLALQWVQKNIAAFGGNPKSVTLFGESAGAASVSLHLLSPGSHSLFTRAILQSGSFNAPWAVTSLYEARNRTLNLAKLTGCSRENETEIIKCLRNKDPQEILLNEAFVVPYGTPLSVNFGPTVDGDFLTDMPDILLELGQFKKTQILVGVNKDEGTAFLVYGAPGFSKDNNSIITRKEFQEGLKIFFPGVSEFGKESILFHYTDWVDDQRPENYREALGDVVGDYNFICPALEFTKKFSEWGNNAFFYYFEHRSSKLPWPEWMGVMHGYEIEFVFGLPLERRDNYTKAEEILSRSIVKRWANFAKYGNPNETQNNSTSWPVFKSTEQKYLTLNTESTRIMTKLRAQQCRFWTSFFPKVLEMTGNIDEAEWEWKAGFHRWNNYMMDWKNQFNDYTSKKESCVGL
Method for BChE: Butyrylthiocholine iodide and acetylthiocholine were utilized as substrates in BChE and AChE assays, respectively, where DTNB was served as indicator. All compounds were dissolved in MeOH. […] Blank assays were performed by replacing the enzyme (20 μL) with buffer and their absorbances were recorded for correction of the spontaneous lysis of the indicator or inherent color of the inhibitor.
% Inhibition = [1−(corrected A/corrected B)] * 100

For orientation: IC50 means the concentration that gives 50% inhibition. The CC50 is the concentration at which the toxic effect on the cells reaches its halfway point. Lower therefore signals harm at low concentration. Regarding `CCS(=O)(=O)N1C/C(=C\c2ccc(Cl)cc2)C(=O)C2(C1)C(c1ccc(Cl)cc1)CN(C)C21C(=O)Nc2ccc(Cl)cc21` (centres unmarked) [Compound 6l, (E)-5-Chloro-5″-(4-chlorobenzylidene)-4′-(4-chlorophenyl)-1″-(ethylsulfonyl)-1′-methyldispiro[indoline-3,2′-pyrrolidine-3′,3″-piperidine]-2,4″-dione], in series [1], the “Apoptosis (%) Early” value was 14.39%, the “Apoptosis (%) Late” value is listed as 21.01%, the “Apoptosis (%) Total” value amounted to 38.41% and the Necrosis came to 3.01%. Further, in series [2], the “% DNA content G0–G1” value is 66.13%, the “% DNA content G2/M” value amounted to 10.13% and the “% DNA content S” value amounted to 23.74%. The IC50 in series [3] (setting [7]) amounted to 31.4 µM. Besides, the IC50 in series [3] (setting [8]) was 31.4 µM. For the same molecule, in series [3], the “SI = CC50/IC50” value is 15.1. The IC50 on BChE was found to be 11.8 ± 0.95 µM. Moreover, at AChE, the “SI = IC50 (AChE)/IC50 (BChE)” value is listed as 2.0 and the IC50 came out at 23.6 ± 7.73 µM. For the same molecule, in [4], the IC50 was 3.99 ± 0.31 µM and the “SI (selectivity index) MCF7” value is on record as > 12.5. The molecule also displayed a CC50 at 24 h in [5] of 476 µM. For the same molecule, on EGFR, the “EGFR % Inhibition” value was 65.7% and the “EGFR RQ (relative quantification)” value came out at 1.18. Moreover, at VEGFR-2, the “VEGFR-2 % Inhibition” value amounted to 60.2% and the “VEGFR-2 RQ (relative quantification)” value is on record as 1.299. The IC50 in series [6] (setting [9]) stood at 3.69 ± 0.33 µM. Further, the IC50 in series [6] (setting [10]) is 3.69 µM. Also, the “SI (selectivity index) A431” value in series [6] is recorded as > 13.5.

In the case of `CN1CC(c2ccc(Br)cc2)C2(CN(S(C)(=O)=O)C/C(=C\c3ccc(Br)cc3)C2=O)C12C(=O)Nc1ccccc12` (centres unmarked) [Compound 6m, (E)-5″-(4-Bromobenzylidene)-4′-(4-bromophenyl)-1′-methyl-1″-(methylsulfonyl)dispiro[indoline-3,2′-pyrrolidine-3′,3″-piperidine]-2,4″-dione], in series [1], the “Apoptosis (%) Early” value was 24.88%, the “Apoptosis (%) Late” value amounted to 13.71%, the “Apoptosis (%) Total” value amounted to 42.55% and the Necrosis is reported as 3.96%. Further, in [2], the “% DNA content G0–G1” value is given as 62.51%, the “% DNA content G2/M” value was 2.38% and the “% DNA content S” value is 35.11%. Also, in series [3] (setting [7]), the IC50 is 8.92 µM. Besides, in series [3] (setting [8]), the IC50 is 8.92 µM. The “SI = CC50/IC50” value in series [3] worked out at 17.9. The IC50 against BChE worked out at 27.9 ± 2.96 µM. Moreover, at AChE, the “SI = IC50 (AChE)/IC50 (BChE)” value was 1.1 and the IC50 came to 29.7 ± 4.05 µM. In series [4], the IC50 stood at 3.6 ± 0.19 µM and the “SI (selectivity index) MCF7” value came out at 4.1. The molecule further yielded a CC50 at 24 h in [5] of 160 µM. On EGFR, the “EGFR % Inhibition” value is 65.6% and the “EGFR RQ (relative quantification)” value worked out at 1.1845. In addition, on VEGFR-2, the “VEGFR-2 % Inhibition” value is reported as 61.3% and the “VEGFR-2 RQ (relative quantification)” value is 1.264. The IC50 in series [6] (setting [9]) was 2.43 ± 0.18 µM. Moreover, the IC50 in series [6] (setting [10]) was 2.43 µM. In addition, the “SI (selectivity index) A431” value in series [6] is 6.1. In series [6] (ratio of IC50 values), the “efficacy, times more than the standard reference 5-fluorouracil (A431)” value was “about 9.6 times”.
